Organism: Rattus norvegicus
Test: Open TG-GATES - Regimen: Single
Assay type: toxicity, organism-based, Sprague-Dawley
Parameters: regimen Single, gender Male, age 6 weeks
Settings: in vivo, po, 100 mg/kg, route gavage, dose level High; for APTT / Bas / Eos / Fbg / Ht / Lym / MCH / MCHC / MCV / Mono / Neu / PT / Plat / RBC / Ret / WBC: tissue Blood; for KIDNEY_L / KIDNEY_R / KIDNEY_TOTAL: tissue Kidney; for LIVER: tissue Liver; for ALP / ALT / AST / BUN / CRE / Ca / Cl / DBIL / GLC / IP / K / LDH / Na / PL / RALB / TBIL / TC / TG / TP / gamma-GTP: tissue Plasma

Cc1cccc(Nc2cc(Cl)nc(SCC(=O)O)n2)c1C [PIRINIXIC ACID]
TERMINAL_BW (3 h): 203.1 g | APTT (3 h): 16 s | Bas (3 h): 0% | Eos (3 h): 0.8% | Fbg (3 h): 246.6 mg/dL | Ht (3 h): 38.5% | Lym (3 h): 76.8% | MCH (3 h): 21.8 pg | MCHC (3 h): 34.4% | MCV (3 h): 63.3 fL | Mono (3 h): 3% | Neu (3 h): 18.2% | PT (3 h): 12.6 s | Plat (3 h): 113.6 x10_4/uL | RBC (3 h): 607.8 x10_4/ul | Ret (3 h): 7.7% | WBC (3 h): 82.7 x10_2/uL | KIDNEY_L (3 h): 0.9 g | KIDNEY_R (3 h): 0.8 g | KIDNEY_TOTAL (3 h): 1.7 g | LIVER (3 h): 8.8 g | ALP (3 h): 1788.2 IU/L | ALT (3 h): 54.6 IU/L | AST (3 h): 82.6 IU/L | BUN (3 h): 11 mg/dL | CRE (3 h): 0.2 mg/dL | Ca (3 h): 11 mg/dL | Cl (3 h): 102.2 meq/L | DBIL (3 h): 0.046 mg/dL | GLC (3 h): 179.8 mg/dL | IP (3 h): 10.4 mg/dL | K (3 h): 4 meq/L | LDH (3 h): 69.8 IU/L | Na (3 h): 139.2 meq/L | PL (3 h): 156.6 mg/dL | RALB (3 h): 2.5 g/dL | TBIL (3 h): 0.058 mg/dL | TC (3 h): 80.8 mg/dL | TG (3 h): 120.2 mg/dL | TP (3 h): 5.4 g/dL | gamma-GTP (3 h): 1 IU/L | TERMINAL_BW (6 h): 202.6 g | APTT (6 h): 16 s | Bas (6 h): 0% | Eos (6 h): 0.6% | Fbg (6 h): 267.4 mg/dL | Ht (6 h): 39.4% | Lym (6 h): 74% | MCH (6 h): 21.5 pg | MCHC (6 h): 34.3% | MCV (6 h): 62.6 fL | Mono (6 h): 2.4% | Neu (6 h): 22.2% | PT (6 h): 12.1 s | Plat (6 h): 116.2 x10_4/uL | RBC (6 h): 628.6 x10_4/ul | Ret (6 h): 7.5% | WBC (6 h): 72.4 x10_2/uL | KIDNEY_L (6 h): 0.9 g | KIDNEY_R (6 h): 0.9 g | KIDNEY_TOTAL (6 h): 1.7 g | LIVER (6 h): 7.8 g | ALP (6 h): 1738.4 IU/L | ALT (6 h): 52 IU/L | AST (6 h): 81.4 IU/L | BUN (6 h): 9.4 mg/dL | CRE (6 h): 0.2 mg/dL | Ca (6 h): 10.6 mg/dL | Cl (6 h): 104.6 meq/L | DBIL (6 h): 0.036 mg/dL | GLC (6 h): 178.6 mg/dL | IP (6 h): 10.9 mg/dL | K (6 h): 4.3 meq/L | LDH (6 h): 54.6 IU/L | Na (6 h): 139.4 meq/L | PL (6 h): 152.4 mg/dL | RALB (6 h): 2.5 g/dL | TBIL (6 h): 0.052 mg/dL | TC (6 h): 80.4 mg/dL | TG (6 h): 105.4 mg/dL | TP (6 h): 5.3 g/dL | gamma-GTP (6 h): 1.6 IU/L | TERMINAL_BW (9 h): 203.7 g | APTT (9 h): 16.5 s | Bas (9 h): 0% | Eos (9 h): 0.4% | Fbg (9 h): 248 mg/dL | Ht (9 h): 40% | Lym (9 h): 79.6% | MCH (9 h): 21.8 pg | MCHC (9 h): 34.3% | MCV (9 h): 63.6 fL | Mono (9 h): 1.8% | Neu (9 h): 17.8% | PT (9 h): 12.4 s | Plat (9 h): 109.8 x10_4/uL | RBC (9 h): 628.8 x10_4/ul | Ret (9 h): 8.1% | WBC (9 h): 76 x10_2/uL | KIDNEY_L (9 h): 0.9 g | KIDNEY_R (9 h): 0.9 g | KIDNEY_TOTAL (9 h): 1.8 g | LIVER (9 h): 7.8 g | ALP (9 h): 2137.8 IU/L | ALT (9 h): 46 IU/L | AST (9 h): 74.2 IU/L | BUN (9 h): 9.6 mg/dL | CRE (9 h): 0.2 mg/dL | Ca (9 h): 10.5 mg/dL | Cl (9 h): 104.4 meq/L | DBIL (9 h): 0.028 mg/dL | GLC (9 h): 192 mg/dL | IP (9 h): 11 mg/dL | K (9 h): 4 meq/L | LDH (9 h): 58.8 IU/L | Na (9 h): 140.8 meq/L | PL (9 h): 115.2 mg/dL | RALB (9 h): 2.6 g/dL | TBIL (9 h): 0.04 mg/dL | TC (9 h): 59.4 mg/dL | TG (9 h): 85.2 mg/dL | TP (9 h): 5.4 g/dL | gamma-GTP (9 h): 1.2 IU/L | TERMINAL_BW (24 h): 210.5 g | APTT (24 h): 16.2 s | Bas (24 h): 0% | Eos (24 h): 1% | Fbg (24 h): 206.8 mg/dL | Ht (24 h): 38.4% | Lym (24 h): 76% | MCH (24 h): 21.8 pg | MCHC (24 h): 34.5% | MCV (24 h): 63.3 fL | Mono (24 h): 2.6% | Neu (24 h): 20.2% | PT (24 h): 13.1 s | Plat (24 h): 109.5 x10_4/uL | RBC (24 h): 607 x10_4/ul | Ret (24 h): 7.2% | WBC (24 h): 74.1 x10_2/uL | KIDNEY_L (24 h): 0.9 g | KIDNEY_R (24 h): 1 g | KIDNEY_TOTAL (24 h): 1.9 g | LIVER (24 h): 10.5 g | ALP (24 h): 1720.8 IU/L | ALT (24 h): 53.4 IU/L | AST (24 h): 77.4 IU/L | BUN (24 h): 14.2 mg/dL | CRE (24 h): 0.2 mg/dL | Ca (24 h): 10.7 mg/dL | Cl (24 h): 104.2 meq/L | DBIL (24 h): 0.018 mg/dL | GLC (24 h): 195.4 mg/dL | IP (24 h): 8.6 mg/dL | K (24 h): 4 meq/L | LDH (24 h): 60.4 IU/L | Na (24 h): 142.2 meq/L | PL (24 h): 96.4 mg/dL | RALB (24 h): 2.6 g/dL | TBIL (24 h): 0.026 mg/dL | TC (24 h): 50.2 mg/dL | TG (24 h): 31.4 mg/dL | TP (24 h): 5.2 g/dL | gamma-GTP (24 h): 1.2 IU/L
